{"source": "patent US9868695B2", "about": "(priority 2014, dated 2018)", "key": {"P-gp": {"system": "P-gp", "assay": "P-gp induction assay, rhodamine123 (Rh123) cell exclusion method in LS-180 cells", "description": "All synthesized compounds were screened for their ability to induce P-gp by using rhodamine123 (Rh123) cell exclusion method. In this method, the P-gp function was evaluated in terms of rhodamine 123 (Rh123) accumulation and efflux. Briefly, the protocol used is as follows: Colorectal LS-180 cells (ECACC type, purchased from Sigma, Cat. no. 87021202, cell passage no. 52) were seeded at a density of 2×10^4 per well of 96 well plate and were allowed to grow for next 24 h. Cells were further incubated with the test compounds, and were diluted to a final concentration of 100 nM and rifampicin (standard) to a final concentration of 10 μM in complete media for 48 h. The final concentration of DMSO was kept at 0.1%. Drugs were removed and cells were incubated with HANKS buffer for 40 minutes before further incubation with HANKS buffer (containing 10 μM of Rh123 as a P-gp substrate) for 90 minutes. At the end of Rh123 treatment cells were washed four times with cold PBS followed by cell lysis for 1 h by using 200 μl of lysis buffer (0.1% Triton X-100 and 0.2 N NaOH). A total of 100 μl of lysate was used for reading fluorescence of Rh123 at 485 nm/529 nm. Samples were normalized by dividing fluorescence of each sample with total protein present in the lysate. For EC50 determination, different concentrations of compound were used to treat LS180 cells for 48 h. EC50 was determined by plotting fluorescence of Rh123 against concentration of compound."}, "[1]": {"system": "microtubules in HCT-116 cells", "assay": "Effect of compounds on microtubules, confocal microscopy", "type": "cell-based, Human", "conditions": "100 nM, 24 h, anti-α-tubulin staining, compared to control", "description": "For detection of tubulins, HCT-116 cells (1×10^5 cells/well) were seeded on to 18 mm square cover slips in six well plates in complete medium. […] After the treatment period, cells were fixed in 4% paraformaldehyde for 10 min at room temperature and permeabilized using 0.5% Triton-X in PBS for 5 min. The cells were blocked with 10% goat serum for 20 min at room temperature. Microtubules were detected with a monoclonal α-tubulin antibody (Sigma, Catalogue number: T9026) diluted 1:100 in 0.1% Triton X-100 in PBS for 1 h at room temperature and Alexa Fluor 488 conjugated secondary antibody (Invitrogen) diluted 1:500 in PBS for 1 h at room temperature. Cells were then washed three times in PBS and stained with 4′,6-diamidino-2-phenylindole (DAPI 1 μg/ml in PBS). The cover slips were mounted over glass slides and cells were imaged by a laser scanning confocal microscope (Olympus Fluoview FV1000). The promising candidates identified through P-gp screening and antiproliferative screening were further studied for tubulin polymerization inhibition activity."}, "Colo-205": {"system": "Colo-205", "assay": "Antiproliferative activity, MTT assay, Colo-205", "type": "cell-based", "conditions": "Homo sapiens, 48 h", "description": "(§1) Human colon cancer cell lines HCT-116 (NCI, passage no. 5) and Colo-205 116 (NCI, passage no. 3) were procured from National Cancer Institute, USA. HCT-116 and Colo-205 cells were grown in McCoy's 5A and RPMI growth medium respectively containing 10% FCS, 100 U penicillin and […] per mL medium. Cells were grown in CO2 incubator (Thermocon Electron Corporation, Houston, Tex.) at 37° C. with 95% humidity and 5% CO2 gas environment. Cells treated with tested materials were dissolved in DMSO while the untreated control cultures received only the vehicle (DMSO<0.2%). Cells were seeded in 96 well plates and exposed to tested compounds at various concentrations for 48 h time interval. MTT dye (2.5 mg/ml in PBS) was added 4 hrs priors to experiment termination. The plates were then centrifuged at 1500 rpm for 15 min and the supernatant was discarded, and MTT formazan crystals were dissolved in 150 μl of DMSO. The OD measured at 570 nm with reference wavelength of 620 nm.\n(§2) The percentages of cell viability and growth inhibition were calculated using formulas: […]"}, "[2]": {"assay": "Thermodynamic equilibrium solubility", "type": "physicochemical", "conditions": "25 °C, thermodynamic from solid, 25±1° C.", "description": "The compounds were first dissolved in methanol to prepare stock solutions (100 and 1000 μg/mL). Different concentrations of stock solutions were pipetted into the 96-well plates and the solvent was evaporated to ensure that solid drug was present in the beginning of the experiment. Thereafter, 200 μl of the dissolution medium was added to the wells and 96-well plate was shaken horizontally at 300 rpm (Eppendorf Thermoblock Adapter, North America) for 4 h at room temperature (25±1° C.). The plates were kept overnight for equilibration of drug in medium. Later, the plates were centrifuged at 3000 rpm for 15 min (Jouan centrifuge BR4i). Supernatant (50 μl) was pipetted into UV 96-well plates (Corning® 96 Well Clear Flat Bottom UV-Transparent Microplate) for analyses with plate reader (SpectraMax Plus384) at λmax of 350 nm. The analyses were performed in triplicate for each compound. The solubility curve of concentration (μg/mL) vs absorbance was plotted to find out saturation point and the corresponding concentration was noted."}, "HCT-116": {"system": "HCT-116", "assay": "Antiproliferative activity, MTT assay, HCT-116", "type": "cell-based, Human", "conditions": "48 h", "description": "as §1, §2"}, "Ehrlich solid tumor": {"system": "Ehrlich solid tumor", "assay": "In vivo activity in Ehrlich solid tumor model", "parameters": "species or system swiss mice", "conditions": "i/p day 1-9, 1 0.75 mg/kg, 1g 1 mg/kg, 5-fluorouracil 22 mg/kg; for Mortality: dead/group size", "description": "Ehrlich ascites carcinoma (EAC) cells were collected from the peritoneal cavity of the swiss mice (animal house of IIIM registered eith CPCSEA; registration no. 67/99/CPCSEA) weighing 18-23 gm, harbouring 8-10 days old ascitic tumor. 1×10^7 EAC cells were injected intramuscularly in the right thigh of 38 swiss male mice selected for the experiment on day 0. The next day, animals were randomized and divided into five groups. Four treatment groups contained 7 animals each and one control group contained 10 animals. Treatment was given as follows:\nGroup I: 1 (0.75 mg/kg, i/p) from day 1-9.\nGroup II: 1g (1 mg/kg, i/p) from day 1-9.\nThe third treatment group was treated with 5-fluorouracil (22 mg/kg, i/p) from day 1-9 and it served as positive control. The control group was similarly administered normal saline (0.2 ml, i/p) from day 1-9. On day 9 & 13, tumor bearing thigh of each animal was shaved and longest and shortest diameters of the tumor were measured with the help of vernier caliper. Tumor weight of each animal was calculated using the following formula.\nThe percent tumor growth inhibition was calculated on day 13 by comparing the average values of treated groups with that of control group. Tumor growth in saline treated control animals was taken to be 100%."}}, "note": "Values joined by “and” are separate entries in the source; they are usually repeats but may differ in a detail not shown here. Equal entries are not always repeated. Where two headings read alike, the source gives them in different places."}
{"smiles": "COc1cc2c(c(OC)c1OC)-c1ccc(Nc3ccc(Cl)c(C(F)(F)F)c3)c(=O)cc1[C@@H](NC(C)=O)CC2", "note": "[Compound 1g, N-[(7S)-1,2,3-Trimethoxy-9-oxo-10-[3-(trifluoromethyl)-4-chloro-phenylamino]-5,6,7,9-tetrahydrobenzo[a]heptalen-7-yl]acetamide]", "values": [{"measurement": "P-gp induction activity", "setting": "P-gp; LS180 cells, Rh123 accumulation, in words", "result": "complete loss of P-gp induction activity"}, {"measurement": "% intracellular accumulation of Rh123 in LS180 cells", "setting": "P-gp; compound 100 nM, 48 h, control = 100%, decrease indicates P-gp induction", "result": 90, "unit": "%"}, {"measurement": "EC50", "setting": "P-gp; read-out: EC50, induction of P-gp, P-gp overexpressing LS-180 cells, 48 h", "result": 69, "unit": "nM"}, {"measurement": "disruption of microtubule assembly", "setting": "[1]", "result": "remarkable disruption and loss of microtubules"}, {"measurement": "IC50", "setting": "Colo-205", "result": 30, "unit": "nM"}, {"measurement": "solubility", "setting": "[2]; aqueous buffer, phosphate buffer saline, read-out: Solubility, PBS", "result": "> 1500", "unit": "µg/mL"}, {"measurement": "solubility", "setting": "[2]; fassgf or other biorelevant, simulated intestinal fluid, read-out: Solubility, SIF", "result": "> 1500", "unit": "µg/mL"}, {"measurement": "solubility", "setting": "[2]; simulated gastric fluid, read-out: Solubility, SGF", "result": "> 1500", "unit": "µg/mL"}, {"measurement": "solubility", "setting": "[2]; water, read-out: Solubility, Water", "result": "> 1500", "unit": "µg/mL"}, {"measurement": "IC50", "setting": "HCT-116", "result": 40, "unit": "nM"}, {"measurement": "Avg. body weights (g) of animal on days 1", "setting": "Ehrlich solid tumor; day 1", "result": 22.28, "unit": "g"}, {"measurement": "Avg. body weights (g) of animal on days 5", "setting": "Ehrlich solid tumor; day 5", "result": 22.0, "unit": "g"}, {"measurement": "Avg. body weights (g) of animal on days 9", "setting": "Ehrlich solid tumor; day 9", "result": 21.28, "unit": "g"}, {"measurement": "Day 13 Avg. body weights", "setting": "Ehrlich solid tumor; day 13", "result": 21.66, "unit": "g"}, {"measurement": "Day 13 Avg. tumor weights", "setting": "Ehrlich solid tumor; day 13", "result": 778.0, "unit": "mg"}, {"measurement": "% Tumor Growth Inhibition", "setting": "Ehrlich solid tumor; day 13 vs saline control", "result": 47.35, "unit": "%"}, {"measurement": "Mortality", "setting": "Ehrlich solid tumor", "result": "no mortality and 0/7"}, {"measurement": "Mortality", "setting": "Ehrlich solid tumor; listed as 4o", "result": "no mortality"}]}
